# What was measured:
# [1] = DPPH free radical scavenging assay (cell free); format: biochemical; details: 35° C., 30 min
# Procedure: (§1) The antioxidant activity of Microsan from Microbacterium sp. strain BS-2 and Brevisan from Brevibacillus sp. strain BS-207 in cell free system was measured by its inhibitory activity on the generation of DPPH free radicals, superoxide anions (O^2−), lipid peroxidation and erythrocyte hemolysis. The DPPH free radical scavenging assay was performed using 2,2-diphenyl-1-picrylhydrazyl (DPPH) free radical scavenging method [Ara. N. and Hasan, N. (2009) Res. J. Med. Medical Sci. 4, 107-110]. Different concentrations of Microsan and Brevisan were mixed individually with 150 μl of 160 μM methanolic solution of DPPH and incubated at 35° C. for 30 min in dark. The effective concentration (EC50) was calculated by measuring the absorbance of the samples at 517 nm. The superoxide anion scavenging was measured using phenazine methosulfate-nicotinamide adenine dinucleotide (PMS/NADH) method as previously described [Liu, F., Ooi, V. E. and Chang, S. T. (1997) Life Sci. 60, 763-771]. The lipid peroxidation assay was performed using the previously described method [Zhang, Q., Yu, P., Li, Z., Zhang, H., Xu, Z. and Li, P. (2003) J. Appl. Phycol. 15, 305-310] which is based on measuring the lipid peroxide decomposed product malondialdehyde (MDA). […] Samples were incubated at 37° C. for 30 min and the absorbance was measured at 540 nm. […]
# [2] = Emulsification index (EI24); format: physicochemical; details: 24 h
# Procedure: (§2) The surface tension of the purified Microsan from Microbacterium sp. strain BS-2 and Brevisan from Brevibacillus sp. strain BS-207 was measured by Wilhelmy plate method using a Du-Nouy K100MK2 Processor Tensiometer (Krüss, Hamburg, Germany) which reduced the surface tension of water from 72 to 31.2 mN m^−1. The interfacial tension value was measured by Du-Nouy ring method and it was determined as 25.7 mN m. The critical micelle concentration (CMC) was measured by plotting the concentration of EPS as a function of surface tension. The CMC is the point where the slope of the curve abruptly changed was determined as 75 mg l^−1. The emulsification index (EI24) was determined by the addition of 4 ml of culture supernatant to 6 ml of various hydrocarbons (N-Hexadecane, tridecane, hexane, toluene and xylene) and oils (mineral oil and soybean oil) and the mixtures were vortexed for 2 min and allowed to stand for 24 h. The emulsification index (EI24) values expressed as the percentage of height of emulsified layer to the height of total liquid column.
# [3] = test system: RAW 264.7 macrophages; assay: In vitro MTT assay, proliferation of RAW 264.7 macrophages; format: cell-based, mouse; details: 200 μg ml-1, 48 h
# Procedure: The effect of Brevisan, Microsan and M-EPS-Au-NP on the proliferation of RAW 264.7 macrophages (ATCC No. CRL-2278) was measured by in vitro MTT assay using the previously described method [Mosmann, T. (1983) J. Immunol. Methods 65, 55-63], which is based on the cell-mediated reduction of tetrazolium salt to form water insoluble formazan crystals. The MTT assay was performed with different concentrations (1-200 μg ml-1) of Brevisan, Microsan and M-EPS-Au-NP were incubated for 48 h using laminarin as a control.
# [4] = Interfacial tension, Du-Nouy ring method; format: physicochemical
# Procedure: as §2
# [5] = test system: erythrocytes; assay: Erythrocyte hemolysis assay (H2O2); format: cell-based; details: human erythrocytes, H2O2, 37° C., 30 min
# Procedure: as §1
# [6] = Critical micelle concentration; format: physicochemical
# Procedure: The bacterial strains producing biosurfactants were isolated from the petroleum-contaminated soil sample collected from Mupkal, Nizamabad, Andhra Pradesh, India (latitude 18.90° N and longitude 78.36° E). The soil sample was enriched by placing 1.0 g of soil sample in 100 ml of mineral salts medium supplemented with N-hexadecane (1%, v/v) as a sole carbon source for three weeks. The enriched sample was serially diluted and then plated on the mineral salts agar plates overlaid with N-hexadecane which acted as a sole carbon source. The colonies that appeared on the plates upon incubation at 37° C. for 72 h were purified for 2-3 times on nutrient agar plates. The isolated pure microorganisms were cultured in liquid mineral salts medium at 37° C. for 72 h. The cells were separated by centrifugation and the cell-free supernatant was measured for the reduction in surface tension values by Wilhelmy plate method using a Du-Nouy K100MK2 Processor Tensiometer (Krüss, Hamburg, Germany). The concentration series was generated automatically with a computer-controlled Dosimat (Metrohm AG, Switzerland). […] The critical micelle concentration (CMC) was measured by plotting the concentration of surfactant as a function of surface tension, and the CMC was taken as the point where the slope of the curve abruptly changed. […]
substance,measurement,setting,value
β-D-glucuronyl-(1-2)-D-mannosyl-(1-4)-D-glucose [Microsan],EC50 DPPH free radical scavenging,[1],40.78 µg/mL
same,emulsification index (EI24),[2]; N-hexadecane,67%
same,emulsification index (EI24),[2]; hexane,83.7%
same,emulsification index (EI24),[2]; mineral oil,71.9%
same,emulsification index (EI24),[2]; soybean oil,63%
same,emulsification index (EI24),[2]; toluene,74.9%
same,emulsification index (EI24),[2]; tridecane,77%
same,emulsification index (EI24),[2]; xylene,66.89%
same,cell proliferation (MTT),[3],89.07%
same,interfacial tension,[4],25.7 mN m
same,EC50 erythrocyte hemolysis inhibition,[5],139.28 µg/mL
same,critical micelle concentration (CMC),[6],75 mg/L

# — patent publication US10106627B2, “Process for the preparation of polymeric biosurfactants” (priority 2014, dated 2018)
